Values after ≈ are worked out from the molar mass of the structure shown.
Experiments:
[1] = tested on: model oligoribonucleotide (ORN) with 27 bases; test: Functionalisation of a model ORN with 27 bases: functionalisation rate and regiospecificity by HPLC/LC-MS after nuclease P1/alkaline phosphatase hydrolysis; format: biochemical; conditions: compound 30 mM, 1 h at 65° C., 250 mM TEAAc pH 7, 25% DMSO; for Fr (corrected functionalisation rate): ORN 8 nmol
Excerpt: For this purpose, a fixed quantity of ORN is reacted with an isatoic anhydride derivative conjugated to a molecule of interest (Cy3 IA Me (13)), under various temperature conditions, duration conditions, reaction medium conditions, etc. HPLC monitoring of the reaction at 260 nm makes it possible to detect the disappearance of the peak corresponding to the initial ORN and the appearance of peaks corresponding to acylated ORN. These products have a greater retention time and have an absorption spectrum corresponding to both that of ORN and that of the fluorescent label.
However, for greater precision on the functionalisation site and to precisely evaluate the functionalisation rate (Fr), the ORN population (labelled and unlabelled) is separated from the excess label by precipitation with acetone/lithium perchlorate or by gel permeation (NAP 5™, GE Health Care. Then the ORNs thus obtained are submitted to hydrolysis with the nuclease P1 (Aldrich, Saint Louis, USA) and with the alkaline phosphatase (Aldrich, Saint Louis, USA), in order to hydrolyse the phosphate diester bonds of ORN.
The ORN functionalisation rate (Fr) is evaluated by measuring: • the area corresponding to the terminal mononucleoside adducts (functionalised at 2′ and at 3′) and the area corresponding to the acylated dinucleosides (functionalised internally on 2′OH) • compared to the area of the peaks corresponding to the four ribonucleosides.
The internal/external regiospecificity of the acylation is evaluated by measuring the relative proportion of the areas corresponding to the: • end mono-nucleotides acylated at 2′ and at 3′ • and di-nucleotides acylated internally on 2′OH • which are easily detectable by HPLC.
The mixture is incubated for 60 minutes at 65° C. in an oven on a rack which is temperature-balanced in advance. An HPLC injection (conditions 3) makes it possible to monitor a formation of a certain quantity of acylated ORN as described in FIG. 6. To eliminate the salts and the excess label, the mixture is then purified on Sephadex NAP 5 gel (GE Health Care, Uppsala, Sweden)) and/or triple precipitation in 1.2 mL of a 180 mM Acetone/LiClO4 75/25 mixture. To finish, the pellet is dried with acetone and is evaporated with the centrifugal evaporator (RCT 60, Jouan, St Herblain, France). The residue is then taken up in 33 μL of a H2O/DMSO 85/15 solution and an HPLC injection (conditions 3) is performed in order to verify the proper elimination of the label. There is added to the mixture 2 μL of nuclease P1 (ref.: N8630 Sigma-Aldrich, St Louis, USA) in 1 U/μl solution in its buffer: 20 mM sodium acetate pH 5.5; 1 mM ZnCl2; 50 mM NaCl and 1 μL of 7 u/μl alkaline phosphatase in water (Ref. P7923-2KU Sigma-Aldrich, St Louis, USA). The medium is left at ambient temperature for 4 to 6 hours. It is then injected into HPLC (conditions 3) in order to verify the total hydrolysis of the ORN and in order to analyse the nature of the fragments obtained in accordance with what was described above and as described in FIG. 6.
The functionalisation rate is evaluated with UV at 260 nm by integration of the clusters corresponding to the acylated dinucleotides and to the acylated nucleosides) relative to the clusters corresponding to the four ribonucleosides. The ratio of the population of acylated dinucleotides to the population of acylated nucleosides is evaluated in the same way in order to evaluate the percentage of functionalisation on the 3′ terminal end.
The functionalisation rate values, presented within the framework of this invention, take into account the correction factor which must be applied according to the molar extinction coefficient at 260 nm of each of the nucleosides and according to whether they are nucleosides or dinucleotides. […]

ODN with 53 bases = test: RNA vs DNA chemoselectivity: functionalisation of an ODN with 53 bases; format: biochemical; conditions: compound 30 mM, DMSO/TEAAc buffer 25/75 (250 mM pH 7), 1 h at 65° C.
Protocol: After precipitation with acetone and hydrolysis with nuclease P1 and alkaline phosphatase, the hydrolysed fragments are analysed by LC-MS, as described in example 3. An example of the chromatograms monitoring the reaction of ODN or ORN with compound 13 is shown in FIG. 9, in which graphs A, B and C respectively represent ORN, ORN functionalised with compound 13 and precipitated, and ORN functionalised with 13, precipitated and hydrolysed. Graphs D, E and F represent the same thing, but with ODN.

in vitro RNA transcripts = test: Detection on Affymetrix DNA chip of biotinylated in vitro RNA transcripts; parameters: species or system human; conditions: 30 mM compound, 60 mins at 65° C.; background in the order of 30 RFU
Protocol: The in vitro transcripts are generated by in vitro transcription of the total RNA extracted from blood samples with the aid of the MessageAmp II kit (Reference AM 1751, AMBION, Austin, Tex.). Briefly, after extraction of the total RNA from the blood cells, a first reverse transcription step by the enzyme […] is performed in order to generate the DNA strand complementary to the mRNA (cDNA). The RNA strand is then digested by the RNase H before forming the double strand of cDNA by means of a DNA polymerase. Finally, the antisense RNA (in vitro transcripts) is obtained from the cDNA using the transcriptase T7.
17.6 μL of previously obtained solution of in vitro RNA transcripts (568 ng/μl), 9.4 μL of ultrapure water and 3 μL of 100 mM Zn(OAc)2 pH 6.5 is mixed. This solution is then incubated for 15 mins at 70° C., and then placed immediately into ice.
30 μL of this solution is sampled, to which there is added 30 μL of a potassium phosphate solution (pH 7, 1M), 30 μL of ultrapure water and 30 μl of the compound SBiot IA Me (9) in a 120 mM solution in DMSO. […]
The excess reagent is then removed in the same way as in example 7 by precipitation with isopropanol. As well as depositing on an Affymetrix chip GeneChip Human Genome U133 Plus 2.0 Array, ref 900470, Affymetrix, St Clara, USA), the detection and measurement of the fluorescence.

physchem = conditions: water

Row | Structure (SMILES) | Fr (corrected functionalisation rate) [1] | solubility (Solubility in water) | corrected functionalisation rate of the ODN (ODN with 53 bases) | External/internal regiospecificity (uncorrected ratio of areas acylated mononucleosides / acylated dinucleotides) [1] | fluorescence intensities compared with background noise of unfunctionalised target IVTs (in vitro RNA transcripts) | solubility (physchem)
1 | O=C(CCCCC1SCC2NC(=O)NC21)Nc1ccc2[nH]c(=O)oc(=O)c2c1 (stereo not shown) [5Biot IA 5, 5-biotin-isatoic anhydride] | 1.2% | 1 mM (≈ 0.404 mg/mL) | – | – | – | –
2 | Cn1c(=O)oc(=O)c2cc(NC(=O)CCCCC3SCC4NC(=O)NC43)ccc21 (stereo not shown) [5Biot IA Me 9, 1-Methyl-5 biotin-isatoic anhydride] | 2.6% | – | 0.1% | 55/45 | very substantially greater than the background noise | –
3 | O=C(CCCCC1SCC2NC(=O)NC21)Nc1ccc2c(c1)c(=O)oc(=O)n2CCCS(=O)(=O)O (stereo not shown) [5Biot IA SO3^− 10, 1-propylsulfone-5-biotin-isatoic anhydride] | 1.6% | – | – | 60/40 | – | –
4 | O=C(CCCCC1SCC2NC(=O)NC21)NCCOCCOCCOCCOCCC(=O)Nc1ccc2[nH]c(=O)oc(=O)c2c1 (stereo not shown) [5Biot PEG4 IA 6, 5-biotin-hexyl ethylene glycol-isatoic anhydride] | 3.3% | 19 mM (≈ 12.4 mg/mL) | – | 62/38 | – | –
5 | Cn1c(=O)oc(=O)c2cc(NC(=O)CCOCCOCCOCCOCCNC(=O)CCCCC3SCC4NC(=O)NC43)ccc21 (stereo not shown) [5Biot PEG4 IA Me 11, 1-methyl-5-biotin-hexyl ethylene glycol-isatoic anhydride] | 4% | 50 mM (≈ 33.3 mg/mL) | – | 60/40 | – | –
6 | O=C(CCCCC1SCC2NC(=O)NC21)NCCOCCOCCOCCOCCC(=O)NCCSSCCC(=O)Nc1ccc2[nH]c(=O)oc(=O)c2c1 (stereo not shown) [5Biot PEG4 SS IA 23] | 3.1% | – | – | 52/48 | – | –
7 | CCN1/C(=C\C=C\C2=[N+](CCCCCC(=O)Nc3ccc4[nH]c(=O)oc(=O)c4c3)c3ccc(S(=O)(=O)[O-])cc3C2(C)C)C(C)(C)c2cc(S(=O)(=O)O)ccc21 [Cy3 IA 7, 5-Cy3 isatoic anhydride] | 2.6% | – | – | 61/39 | – | > 100 mM
8 | CC(=O)Nc1ccc2c(c1)c(=O)oc(=O)n2CC(=O)NCCOCCOCCNC(=O)CCCCC1SCC2NC(=O)NC21 (stereo not shown) [N(Biot PEG2) acetamido IA 19, 1-biotin-diethyleneglycol-5-acetamido-isatoic anhydride] | 1.2% | – | – | 50/50 | – | –
9 | O=C(CCCCC1SCC2NC(=O)NC21)NCCOCCOCCNC(=O)Cn1c(=O)oc(=O)c2ccccc21 (stereo not shown) [N(Biot PEG2)IA 18, 1-biotin-ethylene glycol-isatoic anhydride] | 3.4% | – | – | 56/44 | – | –
10 | O=C(CCCCCn1c(=O)oc(=O)c2ccccc21)NCCCOCCOCCOCCCNC(=O)CCCCC1SCC2NC(=O)NC21 (stereo not shown) [N(Biot PEG4) IA 21, N-(N-(biotin-dPEG3-propyl)-6-bromohexanamide) isatoic anhydride] | 0.7% | – | – | 49/51 | – | –
